Where a name gives a salt, the structure may show the parent alone. Read-outs that look alike come from different tables or passages of the source.
Experiments:
[1] = tested on: HCT116 cells; assay: Inhibition of proliferation of the human colon tumor line HCT116 ([14C]-thymidine incorporation); assay type: cell-based; conditions: 48 hours at 37° C., read-out: Inhibition of HCT116 proliferation IC 50 (μm)
Method: The proliferation of HCT116 cells is evaluated by measuring the incorporation of [^14C]-thymidine in the following manner. The HCT 116 cells (obtained from the ATCC) are cultured in a DMEM medium (Gibco) containing 10% fetal calf serum and antibiotics (1% penicillin, 1% streptomycin). To perform the proliferation test, the cells are inoculated in cytostar 96-well microplates (Amersham), at a rate of 5000 cells per well. [^14C]-thymidine (0.1 μCi/well) and the products to be evaluated are then added. Variable concentrations of products up to 10 μm are used; the DMSO (solvent used to dissolve the products) should not exceed 0.5% in the medium. 48 hours after incubation at 37° C., the radioactivity incorporated into the cells is measured by counting the plate in a TRI-LUX counter (Wallac). The IC50 is defined as the concentration of product that reduces the radioactivity by 50% compared with an untreated control. A product whose IC50 is less than 3 μm is considered cytotoxic.

[2] = molecular target: T1, tubulin (Sus scrofa, UniProt P02550+P02554); assay: Evaluation of the inhibition of tubulin polymerization (turbidimetry); assay type: biochemical, pig; conditions: tubulin 10 μm (1 mg/ml), 37° C., turbidity at 350 nm; concentration that inhibits the rate of polymerization by 50%; read-out: Inhibition of tubulin polymerization IC 50 (μm)
T1 construct: Tubulin is purified from pig brain according to published methods; from tissue; host or cells: pig brain
Method: Tubulin is purified from pig brain according to published methods (Shelanski et al., 1973, Proc. Natl. Acad. Sci. USA, 70, 765-768. Weingarten et al., 1975, Proc. Natl. Acad. Sci. USA, 72, 1858-1862). Briefly, the brains are ground and centrifuged in an extraction buffer. The tubulin contained in the supernatant of the extract undergoes two successive cycles of polymerization at 37° C. and depolymerization at 4° C., before being separated from the MAPs (Microtubule Associated Proteins) by chromatography on a phosphocellulose P11 column (Whatman). The tubulin thus isolated is more than 95% pure. It is stored in a buffer known as RB/2 30% glycerol, the composition of which is 50 mM MES-NaOH [2-(N-morpholino)ethanesulfonic acid], pH 6.8; 0.25 mM MgCl2; 0.5 mM EGTA; 30% glycerol (v/v), 0.2 mM GTP (guanosine-5′-triphosphate).
The polymerization of tubulin to microtubules is monitored by turbidimetry as follows: the tubulin is adjusted to a concentration of 10 μm (1 mg/ml) in RB/2 30% glycerol buffer to which 1 mM GTP and 6 mM MgCl2 are added. The polymerization is triggered by an increase in temperature from 6° C. to 37° C. in a cuvette with an optical path length of 1 cm, placed in a UVIKON 931 spectrophotometer (Kontron) equipped with a thermostatically maintained cuvette holder. The increase in the turbidity of the solution is monitored at 350 nm.
The products are dissolved at 10 mM in DMSO and added at variable concentrations (0.5 to 10 μm) to the tubulin solution before polymerization. The IC50 value is defined as the concentration of product that inhibits the rate of polymerization by 50%.

T1 sequence (P02550 whole entry): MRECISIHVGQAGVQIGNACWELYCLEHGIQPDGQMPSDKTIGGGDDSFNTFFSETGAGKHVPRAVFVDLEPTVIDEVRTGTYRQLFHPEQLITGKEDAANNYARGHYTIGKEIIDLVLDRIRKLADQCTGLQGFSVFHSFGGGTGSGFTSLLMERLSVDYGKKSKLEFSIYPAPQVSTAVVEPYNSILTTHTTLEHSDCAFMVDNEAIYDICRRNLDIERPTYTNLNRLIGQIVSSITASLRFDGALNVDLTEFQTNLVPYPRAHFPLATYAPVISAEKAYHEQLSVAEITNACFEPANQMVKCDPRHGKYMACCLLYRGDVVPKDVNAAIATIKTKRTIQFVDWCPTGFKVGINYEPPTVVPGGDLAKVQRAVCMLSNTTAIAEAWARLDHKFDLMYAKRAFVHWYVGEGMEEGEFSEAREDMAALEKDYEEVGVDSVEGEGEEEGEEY
T1 sequence (P02554 whole entry): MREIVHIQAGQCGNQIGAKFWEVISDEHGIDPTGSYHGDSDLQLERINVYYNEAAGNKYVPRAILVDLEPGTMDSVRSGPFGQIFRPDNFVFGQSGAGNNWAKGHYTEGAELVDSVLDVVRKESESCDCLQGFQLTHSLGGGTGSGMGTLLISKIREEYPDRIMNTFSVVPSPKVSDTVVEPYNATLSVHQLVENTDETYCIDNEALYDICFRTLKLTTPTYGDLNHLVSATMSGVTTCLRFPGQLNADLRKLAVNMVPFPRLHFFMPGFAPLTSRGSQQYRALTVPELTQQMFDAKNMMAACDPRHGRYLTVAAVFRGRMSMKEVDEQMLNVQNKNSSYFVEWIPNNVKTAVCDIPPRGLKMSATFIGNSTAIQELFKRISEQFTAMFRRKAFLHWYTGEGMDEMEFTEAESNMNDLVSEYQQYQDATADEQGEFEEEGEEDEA

Molecule	IC50 ([1]; Homo sapiens, HCT-116, 48 h) [nM]	IC50 [2] [nM]	IC50 [1] [nM]
COc1cccc(-n2nc(C)cc2C(=O)N2CCN(c3ccc(C)c(C)c3)CC2)c1 [3/2]	312		
COc1cccc(-n2nc(C)cc2C(=O)N2CCN(c3cccc(C)c3)CC2)c1 [3/3]	87	1800	
COc1cccc(-n2nc(C)cc2C(=O)N2CCN(c3cc(Cl)ccc3C)CC2)c1 [3/4]	389	1800	
COc1cccc(-n2nc(C)cc2C(=O)N2CCN(c3cc(Cl)ccc3OC)CC2)c1 [3/5]	238	3000	
Cc1cc(C(=O)N2CCN(c3ccccc3)CC2)n(-c2ccccc2)n1 [3/6]	177	4500	
COc1ccccc1N1CCN(C(=O)c2cc(C)nn2-c2ccccc2)CC1 [3/7]	40	5600	
Cc1cc(C(=O)N2CCN(c3cccc(C(F)(F)F)c3)CC2)n(-c2ccccc2)n1 [3/8]	841	6500	
Cc1cc(C(=O)N2CCN(c3cccc(C)c3C)CC2)n(-c2ccccc2)n1 [3/9]	494	7000	
COc1cccc(N2CCN(C(=O)c3cc(C)nn3-c3ccccc3)CC2)c1 [3/10]	25	2000	
Cc1cccc(N2CCN(C(=O)c3cc(C)nn3-c3ccccc3)CC2)c1 [3/11]	36	3000	
Cc1cc(C(=O)N2CCN(c3cccc4ccccc34)CC2)n(-c2ccccc2)n1 [3/13]	466	6000	
Cc1cc(C(=O)N2CCN(c3ccc4c(c3)OCCO4)CC2)n(-c2ccccc2)n1 [3/14]	352	15000	
COc1cccc(N2CCN(C(=O)c3cc(C)nn3-c3ccccc3F)CC2)c1 [3/15]	4	2000	
Cc1cccc(N2CCN(C(=O)c3cc(C)nn3-c3ccccc3F)CC2)c1 [3/16]	224	6000	
Cc1cc(C(=O)N2CCN(c3ccc(C)c(C)c3)CC2)n(-c2cccc(F)c2)n1 [3/17]	159	3500	
Cc1cc(C(=O)N2CCN(c3cccc(Cl)c3)CC2)n(-c2cccc(F)c2)n1 [3/18]	28	2000	
Cc1cccc(N2CCN(C(=O)c3cc(C)nn3-c3cccc(F)c3)CC2)c1 [3/19]	17	1800	
COc1ccc(-n2nc(C)cc2C(=O)N2CCN(c3cccc(Cl)c3)CC2)cc1 [3/39]	734		
COc1ccccc1N1CCN(C(=O)c2cc(C)nn2-c2ccccc2F)CC1 [3/85]	189		
Cc1cc(C(=O)N2CCN(c3ccc(Cl)c(Cl)c3)CC2)n(-c2ccccc2)n1 [3/110]	299		
COc1ccccc1N1CCN(C(=O)c2cc(C)nn2-c2cccc(Cl)c2)CC1 [3/120]	40		
Cc1cc(C(=O)N2CCN(c3ccc(C(F)(F)F)cc3)CC2)n(-c2cccc(Cl)c2)n1 [3/126]	8740		
COc1ccccc1N1CCN(C(=O)c2cc(C)nn2-c2ccccc2F)CC1 [3/144]			255

Continued, values first:

IC50 ([1]; Homo sapiens, HCT-116, 48 h) [nM]	IC50 [2] [nM]	IC50 [1] [nM]	Molecule
	9200		COCOCc1cc(C(=O)N2CCN(c3cccc(C(N)=O)c3)CC2)n(-c2ccccc2)n1 [Example E113, 3-[4-(5-Methoxymethoxymethyl-2-phenyl-2H-pyrazole-3-carbonyl)piperazin-1-yl]benzamide]
	12900		COc1cc(OC)cc(N2CCN(C(=O)c3cc(-c4ccsc4C=O)nn3-c3ccccc3)CC2)c1 [Example E114, 3-{5-[4-(3,5-Dimethoxyphenyl)piperazine-1-carbonyl]-1-phenyl-1H-pyrazol-3-yl}thiophene-2-carboxaldehyde]
	17900		COc1cc(OC)cc(N2CCN(C(=O)c3cc(CN)nn3-c3ccccc3)CC2)c1 [Example E120, (5-Aminomethyl-2-phenyl-2H-pyrazol-3-yl)[4-(3,5-dimethoxyphenyl)piperazin-1-yl]methanone]
	2500		COc1cc(OC)cc(N2CCN(C(=O)c3cc(COCCF)nn3-c3ccccc3)CC2)c1 [Example E123, [4-(3,5-Dimethoxyphenyl)piperazin-1-yl][5-(2-fluoroethoxymethyl)-2-phenyl-2H-pyrazol-3-yl]methanone]
	< 25000		COc1cc(OC)cc(N2CCN(C(=O)c3cc(C(O)C4CCCC4)nn3-c3ccccc3)CC2)c1 (stereo not shown) [Example E124, [5-(Cyclopentylhydroxymethyl)-2-phenyl-2H-pyrazol-3-yl][4-(3,5-dimethoxy-phenyl)piperazin-1-yl]methanone]
	4100		CCC(O)c1cc(C(=O)N2CCN(c3cc(OC)cc(OC)c3)CC2)n(-c2ccccc2)n1 (stereo not shown) [Example E125, [4-(3,5-Dimethoxyphenyl)piperazin-1-yl][5-(1-hydroxypropyl)-2-phenyl-2H-pyrazol-3-yl]methanone]
	800		COC(=O)/C=C/c1cc(C(=O)N2CCN(c3cc(OC)cc(OC)c3)CC2)n(-c2ccccc2)n1 [Example E126, Methyl E-3-{5-[4-(3,5-dimethoxyphenyl)piperazine-1-carbonyl]-1-phenyl-1H-pyrazol-3-yl}acrylate]
	2300		COc1cc(OC)cc(N2CCN(C(=O)c3cc(C(C)O)nn3-c3ccccc3)CC2)c1 (stereo not shown) [Example E127, [4-(3,5-Dimethoxyphenyl)piperazin-1-yl][5-(1-hydroxyethyl)-2-phenyl-2H-pyrazol-3-yl]methanone]
	900		COc1cc(OC)cc(N2CCN(C(=O)c3cc(N4CCC4)nn3-c3ccccc3)CC2)c1 [Example E129, [5-(Azetidin-1-yl)-2-phenyl-2H-pyrazol-3-yl][4-(3,5-dimethoxyphenyl)piperazin-1-yl]methanone]
	1500		C=CCNc1cc(C(=O)N2CCN(c3cc(OC)cc(OC)c3)CC2)n(-c2ccccc2)n1 [Example E130, (5-Allylamino-2-phenyl-2H-pyrazol-3-yl)[4-(3,5-dimethoxyphenyl)piperazin-1-yl]methanone]
	< 25000		COc1cc(OC)cc(N2CCN(C(=O)c3cc(C(O)c4ccccc4)nn3-c3ccccc3)CC2)c1 (stereo not shown) [Example E131, [4-(3,5-Dimethoxyphenyl)piperazin-1-yl][5-(hydroxyphenylmethyl)-2-phenyl-2H-pyrazol-3-yl]methanone]
	900		Cc1cc(C(=O)N2CCN(c3cccc(CO)c3)CC2)n(-c2ccccc2)n1 [Example E132, [4-(3-Hydroxymethylphenyl)piperazin-1-yl](5-methyl-2-phenyl-2H-pyrazol-3-yl)methanone]
	1000		NC(=O)c1cccc(N2CCN(C(=O)c3ccnn3-c3ccccc3)CC2)c1 [Example E133, 3-[4-(2-Phenyl-2H-pyrazole-3-carbonyl)piperazin-1-yl]benzamide]
	500		COc1cc(OC)cc(N2CCN(C(=O)c3cc(CC#N)nn3-c3ccccc3)CC2)c1 [Example E135, (5-Cyanomethyl-2-phenyl-2H-pyrazol-3-yl)[4-(3,5-dimethoxyphenyl)piperazin-1-yl]methanone]
	1300		Cc1cc(C(=O)N2CCN(c3cccc(OC(F)F)c3)CC2)n(-c2ccccc2)n1 [Example E136, [4-(3-Difluoromethoxyphenyl)piperazin-1-yl](5-methyl-2-phenyl-2H-pyrazol-3-yl)methanone hydrochloride]
	22000		COc1cc(OC)cc(N2CCN(C(=O)c3cc(N4CCCCC4)nn3-c3ccccc3)CC2)c1 [Example E138, [4-(3,5-dimethoxyphenyl)piperazin-1-yl][5-(piperid-1-yl)-2-phenyl-2H-pyrazol-3-yl)methanone]
	2900		COc1cc(OC)cc(N2CCN(C(=O)c3c(F)c(F)nn3-c3ccccc3)CC2)c1 [Example E139, [4-(3,5-dimethoxyphenyl)piperazin-1-yl](4,5-difluoro-2-phenyl-2H-pyrazol-3-yl)methanone]
	16500		Cc1cc(C(=O)N2CCN(c3cncc(O)c3)CC2)n(-c2ccccc2)n1 [Example E140, [4-(5-hydroxypyrid-3-yl)piperazin-1-yl](5-methyl-2-phenyl-2H-pyrazol-3-yl)-methanone]
	3200		N-{{3-{[4-(3,5-Dimethoxyphenyl)piperazin-1-yl]carbonyl}-2-phenyl-2H-pyrazin-5-yl}glycine tert-butyl ester [Example E137]
